From ChEMBL document CHEMBL1136258, “Design, synthesis and antifungal activity of a novel water soluble prodrug of antifungal triazole” (Bioorg Med Chem Lett, 2003) come the findings set out here.

Broadly, the half-life is the time in which the quantity being followed falls by half. As usually defined, the solubility is the concentration that dissolves in the medium under given conditions.

Where “and” joins values, the source holds several entries; their conditions need not be identical. Equal entries are not always repeated. Where only a bound is given, the exact number is not on record here.

The nature of data set [1]: Half life in monkey plasma. The conditions noted are these: cercopithecidae. It is filed as ADME, cell-free.
The species named for data set [2] is Rattus norvegicus. In words: (§1) Half life in rat plasma. It is filed as ADME.
Data set [3] can be described thus: Half life in human plasma. Format: ADME, cell-free.
The nature of data set [4]: Solubility in water. It is filed as physicochemical.
Data set [5] can be described thus: as §1. Format: ADME. The settings on record: plasma.
The test system of data set [6] is Rattus norvegicus. Briefly: Efficacy against […] CY1003 on day 14th after peroral administration in rat. Format: functional. The settings on record: po.
Data set [7] deals with Rattus norvegicus. Briefly: Efficacy against Candida albicans CY1002 on day 14th after peroral administration in rat. Format: functional. The settings on record: po.
In data set [8] the test system is Rattus norvegicus. Briefly: Efficacy against Candida albicans CY3003 on day 14th after peroral administration in rat. It is filed as functional. The settings on record: po.
Data set [9] has as its system Rattus norvegicus. Briefly: Efficacy against […] CF924390 on day 14th after peroral administration in rat. It is filed as functional.
Data set [10] deals with Rattus norvegicus. Briefly: Efficacy against Candida tropicalis CY5042 on day 14th after peroral administration in rat. The settings on record: po. It is filed as functional.
Data set [11] is described as follows: Half life in monkey plasma; Not detected. Format: ADME, cell-free. The conditions noted are these: cercopithecidae.
The species entered for data set [12] is Rattus norvegicus. In words: Half life in rat plasma; Not detected. It is filed as ADME.
Data set [13] in a line: Half life in human plasma; Not detected. Format: ADME, cell-free.
Data set [14] concerns Rattus norvegicus. In words: Efficacy against […] CY1003 on day 14th after intravenous administration in rat. Format: functional.
For data set [15], the system named is Rattus norvegicus. Briefly: Efficacy against Candida albicans CY3003 on day 14th after intravenous administration in rat. Format: functional.
The test system of data set [16] is Rattus norvegicus. Briefly: Efficacy against Candida tropicalis CY5042 on day 14th after intravenous administration in rat. It is filed as functional.
Data set [17] deals with Rattus norvegicus. In words: Efficacy against […] CF924390 on day 14th after intravenous administration in rat. Format: functional.
The subject of data set [18] is Rattus norvegicus. In words: Efficacy against Candida albicans CY1002 on day 14th after intravenous administration in rat. It is filed as functional.

As for `CNCC(=O)OCc1cc(F)c(F)cc1N(C)C(=O)OC(C)[n+]1cnn(C[C@](O)(c2cc(F)ccc2F)[C@@H](C)c2nc(-c3ccc(C#N)cc3)cs2)c1.[Cl-]` (stereo partly drawn), the half-life in data set [1] and in [3] was 6 min throughout. In addition, the T1/2 in the data set listed under Rattus norvegicus [2] is < 2 min and 5 min; in [3] it was 8 min. This compound returned a solubility in data set [4] greater than 10000 µg/mL.
For `CNCC(=O)OCc1c(F)cccc1N(C)C(=O)OC(C)[n+]1cnn(C[C@](O)(c2cc(F)ccc2F)[C@@H](C)c2nc(-c3ccc(C#N)cc3)cs2)c1.[Cl-]` (stereo partly drawn), the T1/2 (in [1]; in the data set filed under Rattus norvegicus [2]) was 3 min throughout. The values for the half-life in data set [1], in [5] and in data set [3] were 2 min, less than 2 min and 2 min, respectively. Also, the solubility in data set [4] was greater than 10000 µg/mL.
In turn, `CC(=O)OCCN(C)C(=O)OC[n+]1cnn(C[C@](O)(c2cc(F)ccc2F)[C@@H](C)c2nc(-c3ccc(C#N)cc3)cs2)c1.[I-]` registered a solubility in data set [4] of less than 1000 µg/mL.
`CC(=O)OCc1ccccc1N(C)C(=O)OC[n+]1cnn(C[C@](O)(c2cc(F)ccc2F)[C@@H](C)c2nc(-c3ccc(C#N)cc3)cs2)c1.[Cl-]` registered a solubility in data set [4] of 1000 µg/mL.
Same read-out and setting: with `CNCC(=O)OCc1cc(F)ccc1N(C)C(=O)OC(C)[n+]1cnn(C[C@](O)(c2cc(F)ccc2F)[C@@H](C)c2nc(-c3ccc(C#N)cc3)cs2)c1.[Cl-]` (stereo partly drawn) the figure was greater than 10000 µg/mL.
Regarding `CCC(C)n1ncn(-c2ccc(N3CCN(c4ccc(OCC5COC(Cn6cncn6)(c6ccc(Cl)cc6Cl)O5)cc4)CC3)cc2)c1=O` (stereo not drawn) [ITRACONAZOLE], the ED50 is 8.9 µmol/kg in the data set on Rattus norvegicus [6]; 4.7 µmol/kg with Rattus norvegicus [7]; 1.7 µmol/kg in the data set on Rattus norvegicus [8]; 7.2 µM/kg and 2.5 µM/kg in the data set on Rattus norvegicus [9]; 1.7 µmol/kg in the data set with Rattus norvegicus [10].
Turning to `CC(=O)OC[C@@H]1CCCN1C(=O)OC[n+]1cnn(C[C@](O)(c2cc(F)ccc2F)[C@@H](C)c2nc(-c3ccc(C#N)cc3)cs2)c1.[I-]`, the solubility in [4] is less than 1000 µg/mL.
Turning to `C[C@@H](c1nc(-c2ccc(C#N)cc2)cs1)[C@](O)(Cn1c[n+](COC(=O)N(C)c2ccccc2)cn1)c1cc(F)ccc1F.[Cl-]`, the half-life in data set [5] was 1740 min. In data set [4], this compound returned a solubility of less than 1000 µg/mL.
Consider `CNCC(=O)OCc1cccnc1N(C)C(=O)OC(C)[n+]1cnn(C[C@](O)(c2cc(F)ccc2F)[C@@H](C)c2nc(-c3ccc(C#N)cc3)cs2)c1.[Cl-]` (stereo partly drawn), for which the half-life in data set [1], in data set [5] and in data set [3] was less than 1 min in each case. For the same compound, the T1/2 result (in [11]; in the data set filed under Rattus norvegicus [12]; in data set [13]) was “Not detected” in each case. The same compound had a solubility in data set [4] greater than 100000 µg/mL. Also, the ED50 turned out to be 12 µmol/kg in the data set on Rattus norvegicus [14]; 14 µmol/kg with Rattus norvegicus [6]; 4 µmol/kg in the data set on Rattus norvegicus [7]; 1.5 µmol/kg in the data set on Rattus norvegicus [15]; 2.6 µmol/kg in the data set on Rattus norvegicus [8]; 0.9 µmol/kg in the data set with Rattus norvegicus [16]. In addition, the ED50 came out at 6.8 µM/kg in the data set on Rattus norvegicus [17]; 6 µmol/kg in the data set on Rattus norvegicus [17] (Rattus norvegicus, iv, read-out: ED50); 8.9 µM/kg in the data set on Rattus norvegicus [9]; 9.9 µmol/kg in the data set with Rattus norvegicus [9] (Rattus norvegicus, po, read-out: ED50); 0.8 µmol/kg in the data set on Rattus norvegicus [10]; 4 µmol/kg in the data set on Rattus norvegicus [18].
As for `CC(=O)OCCCN(C)C(=O)OC[n+]1cnn(C[C@](O)(c2cc(F)ccc2F)[C@@H](C)c2nc(-c3ccc(C#N)cc3)cs2)c1.[I-]`, the solubility in data set [4] was less than 1000 µg/mL.
In the case of `CNCC(=O)OCc1ccc(Cl)cc1N(C)C(=O)OC(C)[n+]1cnn(C[C@](O)(c2cc(F)ccc2F)[C@@H](C)c2nc(-c3ccc(C#N)cc3)cs2)c1.[Cl-]` (stereo partly drawn), the T1/2 was 2 min and 5 min in [1]; 4 min in the data set listed under Rattus norvegicus [2]; 4 min in [3]. Moreover, the half-life in data set [5] is less than 2 min; in data set [3], 3 min. This compound displayed a solubility in [4] greater than 10000 µg/mL.
